Measured values from ChEMBL document CHEMBL1201862, “PubChem BioAssay data set” (2004).
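A five-concentration, 48-hour dose response in 96-well plates underlies each endpoint, interpolated linearly between surrounding concentrations. Here, GI50 denotes the concentration required for 50% inhibition of growth.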 The source made the active and inactive calls. Cut-off read from the data, not from the text of the source: active = GI50 up to about 1.1 µM and inactive = higher.

Columns and labels:
Experiment in all cases: NCI anticancer screen, dose series, 48 h
SK-MEL-2 = test system: SK-MEL-2
OVCAR-5 = test system: OVCAR-5
SR = test system: SR
NCI-H460 = test system: NCI-H460
PC-3 = test system: PC-3
SF-268 = test system: SF-268
HT-29 = test system: HT-29
LOX IMVI = test system: LOX IMVI
SK-OV-3 = test system: SK-OV-3
M14 = test system: M14
SF-295 = test system: SF-295
UO-31 = test system: UO-31
BT-549 = test system: BT-549
TK-10 = test system: TK-10
CAKI-1 = test system: CAKI-1
UACC-62 = test system: UACC-62
RPMI-8226 = test system: RPMI-8226
KM12 = test system: KM12
A549 = test system: A549
SK-MEL-28 = test system: SK-MEL-28
SNB-19 = test system: SNB-19
NCI-H226 = test system: NCI-H226
SN12C = test system: SN12C
Hs-578T = test system: Hs-578T
IGROV-1 = test system: IGROV-1
786-0 = test system: 786-0
HOP-92 = test system: HOP-92
SK-MEL-5 = test system: SK-MEL-5
COLO 205 = test system: COLO 205
MOLT-4 = test system: MOLT-4
HCT-116 = test system: HCT-116
DU-145 = test system: DU-145
HOP-62 = test system: HOP-62
MDA-N = test system: MDA-N
OVCAR-3 = test system: OVCAR-3
EKVX = test system: EKVX
SF-539 = test system: SF-539
MCF7 = test system: MCF7
MDA-MB-231 = test system: MDA-MB-231
HCT-15 = test system: HCT-15
OVCAR-8 = test system: OVCAR-8
OVCAR-4 = test system: OVCAR-4
UACC-257 = test system: UACC-257
SNB-75 = test system: SNB-75
SW-620 = test system: SW-620
MDA-MB-435 = test system: MDA-MB-435
ACHN = test system: ACHN
NCI-H522 = test system: NCI-H522
CCRF-CEM = test system: CCRF-CEM
HCC 2998 = test system: HCC 2998
Malme-3M = test system: Malme-3M
T47D = test system: T47D
K562 = test system: K562
NCI-H23 = test system: NCI-H23
HL-60 = test system: HL-60
NCI/ADR-RES = test system: NCI/ADR-RES
U-251 = test system: U-251

In the case of `O/N=C1\C=Cc2nn(-c3ccccc3)nc2\C1=N/O`, the GI50 (SK-MEL-2) is reported as 30.3 µM (inactive), the GI50 (OVCAR-5) is reported as 7.41 µM (inactive) and the GI50 (SR) is reported as 3.64 µM (inactive). For the same compound, the GI50 (NCI-H460) was 3.07 µM (inactive), the GI50 (PC-3) was 3.25 µM (inactive) and the GI50 (SF-268) was 4.27 µM (inactive). For the same compound, the GI50 (HT-29) was 4.85 µM (inactive), the GI50 (LOX IMVI) was 2.81 µM (inactive) and the GI50 (SK-OV-3) was 6.35 µM (inactive). The GI50 (M14) was 5.79 µM (inactive), the GI50 (SF-295) was 4.89 µM (inactive) and the GI50 (UO-31) was 3.15 µM (inactive). For the same compound, the GI50 (BT-549) was 3.4 µM (inactive), the GI50 (TK-10) was 17.8 µM (inactive) and the GI50 (CAKI-1) was 4.27 µM (inactive). For the same compound, the GI50 (UACC-62) was 1.3 µM (inactive), the GI50 (RPMI-8226) was 3.71 µM (inactive) and the GI50 (KM12) was 4.55 µM (inactive). The GI50 (A549) was 3.05 µM (inactive), the GI50 (SK-MEL-28) was 6.21 µM (inactive) and the GI50 (SNB-19) was 5.5 µM (inactive). For the same compound, the GI50 (NCI-H226) was 2.1 µM (inactive), the GI50 (SN12C) was 7.24 µM (inactive) and the GI50 (Hs-578T) was 1.85 µM (inactive). For the same compound, the GI50 (IGROV-1) was 2.79 µM (inactive), the GI50 (786-0) was 6.11 µM (inactive) and the GI50 (HOP-92) was 8.26 µM (inactive). For the same compound, the GI50 (SK-MEL-5) was 2.24 µM (inactive), the GI50 (COLO 205) was 3.7 µM (inactive) and the GI50 (MOLT-4) was 2.55 µM (inactive). For the same compound, the GI50 (HCT-116) was 2.65 µM (inactive), the GI50 (DU-145) was 1.07 µM (active) and the GI50 (HOP-62) was 4.3 µM (inactive). The GI50 (MDA-N) was 7.96 µM (inactive), the GI50 (OVCAR-3) was 4.67 µM (inactive) and the GI50 (EKVX) was 5.41 µM (inactive). The GI50 (SF-539) was 4.22 µM (inactive), the GI50 (MCF7) was 2.69 µM (inactive) and the GI50 (MDA-MB-231) was 4.06 µM (inactive). The GI50 (HCT-15) was 4.38 µM, the GI50 (OVCAR-8) was 3.01 µM (inactive) and the GI50 (OVCAR-4) was 5.36 µM (inactive). The GI50 (UACC-257) was 3.11 µM (inactive), the GI50 (SNB-75) was 15.6 µM (inactive) and the GI50 (SW-620) was 5.41 µM (inactive). For the same compound, the GI50 (MDA-MB-435) was 2.74 µM (inactive), the GI50 (ACHN) was 2.3 µM (inactive) and the GI50 (NCI-H522) was 2.94 µM (inactive). The GI50 (CCRF-CEM) was 2.42 µM (inactive), the GI50 (HCC 2998) was 14.5 µM (inactive) and the GI50 (Malme-3M) was 17.7 µM (inactive). The GI50 (T47D) was 5.47 µM (inactive), the GI50 (K562) was 0.695 µM (active) and the GI50 (NCI-H23) was 3.77 µM (inactive). For the same compound, the GI50 (HL-60) was 2.03 µM (inactive), the GI50 (NCI/ADR-RES) was 7.24 µM (inactive) and the GI50 (U-251) was 7.16 µM (inactive).
